The record followed here is US6458951B2, “Pyrazolopyrimidinone cGMP PDE5 inhibitors for the treatment of sexual dysfunction” (Pfizer Inc, priority 1998, dated 2002).

Test system in the first data set: not given
Assay: not given
Settings: not given
One may read the melting point as the temperature of the solid-liquid transition. For `CCc1c2nc(-c3cc(S(=O)(=O)N4CCN(CC)CC4)cnc3OCCOC)[nH]c(=O)c2nn1Cc1ccccn1` (hydrate or solvate) [Example 4, 3-Ethyl-5-[5-(4-ethylpiperazin-1-ylsulphonyl)-2-(2-methoxyethoxy)pyridin-3-yl]-2-(Pyridin-2-yl)methyl-2,6-dihydro-7H-pyrazolo[4,3-d]pyrimidin-7-one], the melting point fell in the range of 139 to 140 °C.

Another data set addresses cGMP PDE5 (UniProt O76074). Briefly: Phosphodiesterase (PDE) inhibitory activity, in vitro, cGMP PDE5. Type of data set: biochemical, human or rabbit. The settings on record: in vitro activity as inhibitors of cGMP PDE5. How it is done: In vitro PDE inhibitory activities against cyclic guanosine 3′,5′-monophosphate (cGMP) and cyclic adenosine 3′,5′-monophosphate (cAMP) phosphodiesterases were determined by measurement of their IC50 values (the concentration of compound required for 50% inhibition of enzyme activity).
The required PDE enzymes were isolated from a variety of sources, including human corpus cavernosum, human and rabbit platelets, human cardiac ventricle, human skeletal muscle and bovine retina, essentially by the method of W. J. Thompson and M. M. Appleman (Biochem., 1971, 10, 311). In particular, the cGMP-specific PDE (PDE5) and the cGMP-inhibited cAMP PDE (PDE3) were obtained from human corpus cavernosum tissue, human platelets or rabbit platelets; the cGMP-stimulated PDE (PDE2) was obtained from human corpus cavernosum; the calcium/calmodulin (Ca/CAM)-dependent PDE (PDE1) from human cardiac ventricle; the cAMP-specific PDE (PDE4) from human skeletal muscle; and the photoreceptor PDE (PDE6) from bovine retina.
Assays were performed using a modification of the “batch” method of W. J. Thompson et al. (Biochem., 1979, 18, 5228).
The IC50 is the concentration that gives 50% inhibition. The compound `CCCc1c2nc(-c3cc(S(=O)(=O)N4CCN(CC)CC4)cnc3OCCOCC)[nH]c(=O)c2nn1Cc1ccccn1` [Example 10, 5-[2-(2-Ethoxyethoxy)-5-(4-ethylpiperazin-1-ylsulphonyl)pyridin-3-yl]-3-n-propyl-2-(pyridin-2-yl)methyl-2,6-dihydro-7H-pyrazolo[4,3-d]pyrimidin-7-one] yielded an IC50 of 10.1 nM. For the compound `CCc1c2nc(-c3cc(S(=O)(=O)N4CCN(CC)CC4)cnc3OCCCOC)[nH]c(=O)c2nn1Cc1ccccn1` [Example 11, 3-Ethyl-5-[5-(4-ethylpiperazin-1-ylsulphonyl)-2-(3-methoxyprop-1-oxy)-pyridin-3-yl]-2-(pyridin-2-yl)methyl-2,6-dihydro-7H-pyrazolo[4,3-d]pyrimidin-7-one], half-maximal inhibition (IC50) was put at 10 nM. In turn, `CCc1c2nc(-c3cc(S(=O)(=O)N4CCN(CC)CC4)cnc3O[C@@H]3CCOC3)[nH]c(=O)c2nn1Cc1ccccn1` [Example 18, 3-Ethyl-5-[5-(4-ethylpiperazin-1-ylsulphonyl)-2-(tetrahydrofuran-3(R)-yloxy)pyridin-3-yl]-2-(pyridin-2-yl)methyl-2,6-dihydro-7H-pyrazolo[4,3-d]pyrimidin-7-one] had an IC50 of 8.9 nM. This IC50 and that of the compound before are within 1.5-fold of each other. On the same count and under the same terms, in the case of `CCCc1c2nc(-c3cc(S(=O)(=O)N4CCN(CC)CC4)cnc3OCC)[nH]c(=O)c2nn1Cc1ncccn1` [Example 43b, 5-[2-Ethoxy-5-(4-ethylpiperazin-1-ylsulphonyl)pyridin-3-yl]-3-n-propyl-2-(pyrimidin-2-yl)methyl-2,6-dihydro-7H-pyrazolo[4,3-d]pyrimidin-7-one] it was 3.6 nM. With `CCc1nn(Cc2nccn2C)c2c(=O)[nH]c(-c3cc(S(=O)(=O)N4CCN(CC)CC4)cnc3OCCOC)nc12` [Example 46, 3-Ethyl-5-[5-(4-ethylpiperazin-1-ylsulphonyl)-2-(2-methoxyethoxy)pyridin-3-yl]-1-(1-methylimidazol-2-yl)methyl-1,6-dihydro-7H-pyrazolo[4,3-d]pyrimidin-7-one], 8.1 nM corresponded to half-maximal inhibition (IC50). `CCCc1nn(Cc2ncccn2)c2c(=O)[nH]c(-c3cc(S(=O)(=O)N4CCN(CC)CC4)cnc3OCCOC)nc12` [Example 48, 5-[5-(4-Ethylpiperazin-1-ylsulphonyl)-2-(2-methoxyethoxy)pyridin-3-yl]-3-n-propyl-1-(pyrimidin-2-yl)methyl-1,6-dihydro-7H-pyrazolo[4,3-d]pyrimidin-7-one] returned an IC50 of 6.9 nM. Compound `CCc1c2nc(-c3cc(S(=O)(=O)N4CCN(CC)CC4)cnc3O[C@H](C)[C@@H](C)OC)[nH]c(=O)c2nn1C` [Example 98, 3-Ethyl-5-[5-(4-ethylpiperazin-1-ylsulphonyl)-2-(2-(R)-methoxy-1-(R)-methylpropoxy)pyridin-3-yl]-2-methyl-2,6-dihydro-7H-pyrazolo[4,3-d]pyrimidin-7-one] displayed an IC50 of 7 nM. `CCc1c2nc(-c3cc(S(=O)(=O)N4CCN(CC)CC4)cnc3OCc3ccccn3)[nH]c(=O)c2nn1C` [Example 99, 3-Ethyl-5-[5-(4-ethylpiperazin-1-ylsulphonyl)-2-(pyridin-2-yl)methoxypyridin-3-yl]-2-methyl-2,6-dihydro-7H-pyrazolo[4,3-d]pyrimidin-7-one] displayed an IC50 of 5.7 nM.

Regarding `CCCc1nn(C)c2c(=O)[nH]c(-c3cc(S(=O)(=O)N4CCN(CC)CC4)cnc3OCc3ccccn3)nc12` [Example 127, 5-{5-(4-Ethylpiperazin-1-ylsulphonyl)-2-[(pyridin-2-yl)methoxy]pyridin-3-yl}-1-methyl-3-n-propyl-1,6-dihydro-7H-pyrazolo[4,3-d]pyrimidin-7-one], the IC50 stood at 7.3 nM.

`CCc1c2nc(-c3cc(S(=O)(=O)N4CCN(CC)CC4)cnc3N3CCCC3)[nH]c(=O)c2nn1Cc1ccccn1` [Example 153] returned an IC50 of 7.2 nM.
